Assay results published in patent publication US20030180345A1, “Compositions and methods for inhibiting islet dysfunction and autoimmune disorders” (priority 2000, published 2003).
Entries after “also recorded” stand apart in the source; their conditions may differ.

Experiments:
[1] = tested on: fetal pancreas; assay: Fetal pancreatic vascularization with taurine supplementation; type: in vivo, Wistar rats; conditions: LP diet + taurine in drinking water; fetal day 21.5
Method: Animals and diets were as described above in Example 1. The fetal pancreas was removed at day 21.5. Vascular density, expressed as a percent of area, and number of blood vessels per unit area were evaluated.

[2] = tested on: IGF-II; assay: Islet IGF-II immunoreactivity with dietary taurine supplementation; type: in vivo, Wistar rats; conditions: LP diet with taurine
Method: Animals and diets were prepared as described in Example 7. The pancreas was removed, and IGF-II immunoreactivity was evaluated according to a method described by […] et al., (Endocrinology 1999;140: 4861-4873). Expression of IGF-II, considered a survival factor for cells, was measured as an indicator of the overall health of the β cells.

[3] = tested on: Fas; assay: Islet Fas immunoreactivity with dietary taurine supplementation; type: in vivo, Wistar rats; conditions: post-natal day 14
Method: (§1) Animals and diets were prepared as described in Example 8. The pancreas was removed, and the presence of Fas, Fas ligand, inducible nitric oxide synthase (iNOS) and vascular endothelial growth factor (VEGF) were evaluated in pancreatic sections using immunoreactivity.

[4] = tested on: fetal islet β cells; assay: SNP-induced apoptosis in cultured fetal islets (TUNEL, confocal microscopy); type: cell-based, Wistar rats; conditions: for in vitro apoptotic rate: absence of SNP
Method: Animals and Diets. Adult virgin female Wistar rats were caged overnight with males and copulation was verified the next morning. Animals were maintained at 25° C. with a 10 h-14 h dark-light cycle. Pregnant rats were divided into two groups and fed one of the following isocaloric diets: either a control diet (C) containing 20% protein or a low protein diet (LP) containing 8% protein. The composition of the diet was as described previously by Snoeck et al. 1990 (Biol. Neonate 57, 107-118). The diets were purchased from Hope Farms (Woerden, Holland). Animals in both the groups had free access to water at all times. At 21.5 days of gestation, females were sacrificed by decapitation and fetuses removed.
Islet culture and treatment. Fetal islets were isolated as described by Mourmeaux et al. 1985 (Molecular and Cellular Endocrinology 39:237-246). Islets were cultured in 35 mm Petri-dishes (Falcon plastics, Los Angeles, Calif.) in RPMI 1640 medium (Gibco, Grand Island, N.Y., USA) with 10% Fetal Bovine Serum and antibiotics (penicillin 200 U/ml, streptomycin 0.2 mg/ml). Petri dishes were incubated at 37° C. with 5% CO2 in air. The culture medium was changed daily after the second day. On the 5th day of culture, islets were rinsed twice with serum free DME/F12 medium (1:1, v/v, Gibco, Paisley, Scotland) and subsequently incubated for 42 hours in this medium. […]
TUNEL method for evaluating apoptosis. Apoptosis was evaluated by the TUNEL method described herein, and visualized with confocal microscopy. Cultured islets were fixed in methanol and stored at −20° C. until analysis. The tissue was then washed with phosphate buffered saline (PBS) for 3 min, and a terminal deoxynucleotidyl transferase (TdT) reaction buffer (50 μl) was added. The 50 μl of TdT solution was prepared using 10 μl of 5× concentrated buffer solution (1 mol/l potassium cacodylate; 125 mmol/l Tris-HCl, pH 6.6; 1.26 mg bovine serum albumin). Cobalt chloride (5 μl of 25 mmol/l), 0.5 μl (12.5 units) of TdT (both from Boehringer Mannheim, Germany), and 0.25 nmoles of BODIPY-FL-X-14-dUTP (Molecular Probes, Eugene, Oreg. USA) were added, along with distilled water, up to 50 μl. Islets were incubated in Petri dishes with the TdT reaction buffer for 60 min at 37° C., then rinsed twice with 15 mmol/l EDTA (pH 8.0) in PBS and once with 0.1% Triton X-100 in PBS. Then, 2 ml of PBS containing 2.5 μg/ml of propidium iodide (Molecular Probes, Eugene, Oreg. USA) was added to the dishes for 5 min. Finally, islet cells were washed with 15 mmol/l EDTA (pH 8.0). Islet cells were then double-labelled for apoptotic nuclei, showing the BODIPY-FL-dUTP label in […] and total nuclei with propidium iodide in red.
Confocal microscopy. Staining probes were visualised through a confocal laser scanning microscopy system (MRC-1024 UV; BIO-RAD, UK) equipped with Argon ion and Krypton/Argon ion lasers. BODIPY-FL was excited at 503 nm, ethidium bromide at 510 nm, propidium iodide at 536 nm and Hoechst 33342 at 346 nm. The emissions were recorded respectively at 522/32 nm, 605/32 nm and 455/30 nm. Four to six optical sections were collected at every 15 μm through the islet. The number of BODIPY-FL-positive or ethidium bromide-positive nuclei were reported and expressed as a percentage of the total number of nuclei.
Animals, diets, and fetal islet isolation procedures were conducted as described in Example 1.

[5] = tested on: Fas ligand; assay: Islet Fas ligand immunoreactivity with dietary taurine supplementation; type: in vivo, Wistar rats; conditions: post-natal day 14
Method: as §1

[6] = tested on: VEGF; assay: Pancreatic VEGF immunoreactivity with dietary taurine supplementation; type: in vivo, Wistar rats; conditions: decrease by low protein diet; regardless of developmental stage
Method: as §1

[7] = tested on: fetal islets; assay: Interaction of dietary and in vitro taurine on SNP- or IL1β-induced apoptosis of fetal islets; type: cell-based, Wistar rats
Method: Animals and diets were prepared as described in Example 7. Pancreases were removed and islets were isolated from late gestation fetuses at day 21.5. Neoformed fetal islets obtained after five days of culture from the four diet groups (C, C+Taurine, LP, and LP+Taurine) were compared for their susceptibility to apoptosis following exposure to SNP (100 μmol/l), or IL1β (50 U/ml), with or without in vitro taurine at either physiological (0.3 mmol/l) or supraphysiological (3.0 mmol/l) levels.

[8] = tested on: NOD mice; assay: Gestational taurine supplementation in NOD mice: diabetes onset, insulitis and endocrine pancreas development; type: in vivo
Excerpt: Pregnant NOD mice (maintained as in Example 13) were supplemented with 2.5% of taurine in drinking water during gestation. Pups were either sacrificed at 14 days of age, and pancreata were collected and fixed for histology as depicted in FIG. 16, or followed until glucosurea was apparent.

Structure (SMILES): NCCS(=O)(=O)O [taurine, 2-aminoethylsulfonic acid]
- blood vessel numbers per unit area [1]: restoring both vascularization parameters to the level of the control groups
- vascular density (percent of area) [1]: restoring both vascularization parameters to the level of the control groups
- IGF-II immunoreactivity ([2]; fetal period (F21.5)): increased IGF-II immunoreactivity to a level consistent with the C diet animals
- IGF-II immunoreactivity ([2]; post-natal): restored IGF-II immunoreactivity levels to the point that the control IGF-II level was surpassed
- immunoreactive Fas within islets [3]: reduced
- reduction of SNP-induced apoptosis ([4]; 0.3 mmol/l taurine, SNP 100 μmol/l, LP islets): 60%
- reduction of SNP-induced apoptosis ([4]; 0.3 mmol/l taurine, SNP 100 μmol/l, control islets): 30%
- in vitro apoptotic rate ([4]; control diet (C) islets, 0.3 mmol/l taurine): 1.5±0.2%
- in vitro apoptotic rate ([4]; control diet (C) islets, 3 mmol/l taurine): 1.4±0.3%
- in vitro apoptotic rate ([4]; low protein diet (LP) islets, 0.3 mmol/l taurine): 2.1±0.3%
- in vitro apoptotic rate ([4]; low protein diet (LP) islets, 3 mmol/l taurine): 2.1±0.4%
- percentage of β cells positive for apoptosis ([4]; taurine 0.3 or 3 mmol/l, SNP 100 μmol/l, both diet groups): significantly decreased
- Fas ligand presence in islets [5]: reduced
- VEGF immunoreactivity in the pancreas [6]: reverses the effect
- increased apoptotic response of LP fetal islets to SNP or IL1β ([7]; co-incubation with taurine in vitro (0.3 or 3.0 mmol/l)): reversed
- SNP-induced and IL 1β-induced apoptosis in fetal islets ([7]; dietary taurine in low protein diet combined with high local taurine in vitro): synergistically decrease
- increased apoptotic response of LP fetal islets to SNP or IL1β ([7]; maternal supplementation with taurine in vivo): reversed
- proportion of IGF-II-immunoreactive islet cells ([8]; 14 days of age, p<0.01): greater proportion
- mean islet area ([8]; 14 days of age, p<0.05): significantly smaller
- proportion of proliferating islet cells ([8]; 14 days of age, p<0.05): greater proportion
- number of apoptotic cells in islets ([8]; NOD female mice, 14 days of age, vs control animals): reduced nearly in half; also recorded: less apoptotic cells
- survival ([8]; female and male NOD mice, Log Rank and Wilcoxon tests): improved survival
- reduction of insulitis ([8]; insulitis appearing at 8 weeks, 2.5% taurine in drinking water during gestation): 90%
- insulin/glucagon ratio ([8]; small islets, NOD female mice): No difference
- percentage of PCNA positive cells (cell proliferation) ([8]; small islets, NOD female mice): significant increase
- percentage of area stained for glucagon (alpha cells) ([8]; small islets, NOD female mice): significantly increased
- percentage of area stained for insulin (β mass) ([8]; small islets, NOD female mice): significant increase
- age by which 50% of mice became diabetic ([8]; taurine treatment n=51, controls 16 weeks, p<0.001): 26 weeks
